Test results reported in patent US20250281606A1 (AKSEERA PHARMA CORP., priority 2020, published 2025).
“And” between values parts separate entries of the source, which are not always exact repeats. Equal values may be shown once. Read-outs that look alike come from different tables or passages of the source.

How the values were obtained:
[1] = system: IgG and IgM antibody titres (serum); assay type: in vivo, Balb/c mice
[2] = system: IgG and IgM antibody titres (serum); assay: IgG and IgM antibody titres in mice vaccinated with Covishield, with or without oral CBD; conditions: for IgG, serum (CLIA, EIA) / IgM, serum (CLIA, EIA): individual mice (F/M); for augmentation of overall IgG response to vaccine by CBD / augmentation of overall IgM response to vaccine by CBD: CBD throughout or until vaccination, same magnitude, vs vaccine alone; for time after vaccine by which IgG and IgM responses were significantly elevated compared to mice not given CBD: CBD throughout the study or just until vaccine
[3] = 0 Day, group GII (CS): Covishild + CBD 102.5 mg/kg/d gavage day -7 to 28
[4] = 0 Day, group GIII (CS): Covishild + CBD 102.5 mg/kg/d gavage day -7 to 0, then discontinued
[5] = 7th Day, group GII (CS): Covishild + CBD 102.5 mg/kg/d gavage day -7 to 28
[6] = 7th Day, group GIII (CS): Covishild + CBD 102.5 mg/kg/d gavage day -7 to 0, then discontinued
[7] = 14 Day, group GII (CS): Covishild + CBD 102.5 mg/kg/d gavage day -7 to 28
[8] = 14 Day, group GIII (CS): Covishild + CBD 102.5 mg/kg/d gavage day -7 to 0, then discontinued

C=C(C)[C@@H]1CCC(C)=C[C@H]1c1c(O)cc(CCCCC)cc1O [CBD Formulation, Cannabidiol]
IgG, serum (CLIA, EIA) ([1]; 0 Day): 7.4 IU/mL and 6.8 IU/mL and 7.2 IU/mL and 7.1 IU/mL and 9.2 IU/mL and 7.5 IU/mL and 8.21 IU/mL | IgG, serum (CLIA, EIA) ([1]; 14 Day): 7.2 IU/mL and 6.4 IU/mL and 7.1 IU/mL and 7.4 IU/mL and 6 IU/mL and 9.1 IU/mL and 7 IU/mL and 7.3 IU/mL | IgM, serum (CLIA, EIA) ([1]; 14 Day): 9.3 AU/mL and 9.8 AU/mL and 10.2 AU/mL and 10.3 AU/mL and 9 AU/mL and 10.4 AU/mL and 9.2 AU/mL | IgG, serum (CLIA, EIA) ([1]; 21 Day): 7.3 IU/mL and 7.1 IU/mL and 7.5 IU/mL and 7.2 IU/mL and 9.1 IU/mL and 7 IU/mL and 7.4 IU/mL | IgG, serum (CLIA, EIA) ([1]; mouse, in vivo): 7.2 IU/mL and 7.1 IU/mL and 7.3 IU/mL and 6.9 IU/mL and 9.2 IU/mL and 7.5 IU/mL and 8.21 IU/mL | IgM, serum (CLIA, EIA) ([1]; mouse, in vivo): 10.2 AU/mL and 9.8 AU/mL and 10 AU/mL and 10.1 AU/mL and 10.3 AU/mL | augmentation by CBD of the response to Covaxin compared with Covishield ([1]; mouse, in vivo): tended to be less | day at which a rise in IgM was seen ([1]; mouse, in vivo): 7 days | day at which a significant rise in IgG and IgM was apparent ([1]; mouse, in vivo): 7 days | day by which a rise in IgG was seen ([1]; mouse, in vivo): ≤ 14 days | overall IgM response to Covaxin versus Covaxin alone ([1]; mouse, in vivo): augmented | IgG, serum (CLIA, EIA) [2, 3]: 7.4 IU/mL and 7.8 IU/mL and 7.1 IU/mL (2×) and 6.8 IU/mL and 6.4 IU/mL | IgM, serum (CLIA, EIA) [2, 3]: 9.2 AU/mL (2×) and 8.2 AU/mL and 10.1 AU/mL and 9.4 AU/mL and 8.8 AU/mL | IgG, serum (CLIA, EIA) [2, 4]: 7.5 IU/mL and 6.8 IU/mL (2×) and 6.5 IU/mL and 7.21 IU/mL and 7.2 IU/mL | IgM, serum (CLIA, EIA) [2, 4]: 9.4 AU/mL and 9.3 AU/mL (3×) and 9.2 AU/mL and 9.1 AU/mL | IgG, serum (CLIA, EIA) [2, 5]: 7.4 IU/mL and 7.5 IU/mL and 8.2 IU/mL and 7.3 IU/mL (2×) and 7.8 IU/mL | IgM, serum (CLIA, EIA) [2, 5]: 10.2 AU/mL and 8.2 AU/mL and 10.11 AU/mL and 10.5 AU/mL and 10.4 AU/mL | IgG, serum (CLIA, EIA) [2, 6]: 7.4 IU/mL and 6.9 IU/mL and 7.3 IU/mL (2×) and 7.2 IU/mL and 7.1 IU/mL | IgM, serum (CLIA, EIA) [2, 6]: 9.2 AU/mL and 9.6 AU/mL and 10.1 AU/mL and 10.2 AU/mL and 10.3 AU/mL | IgG, serum (CLIA, EIA) [2, 7]: 7.5 IU/mL and 7.8 IU/mL (3×) and 7.6 IU/mL and 8.2 IU/mL | IgM, serum (CLIA, EIA) [2, 7]: 10.5 AU/mL and 10.15 AU/mL and 10.52 AU/mL | IgG, serum (CLIA, EIA) [2, 8]: 7.5 IU/mL (2×) and 7.6 IU/mL and 7.3 IU/mL and 7.8 IU/mL and 7.9 IU/mL | IgM, serum (CLIA, EIA) [2, 8]: 10.1 AU/mL and 10.5 AU/mL and 10.3 AU/mL (2×) | IgG, serum (CLIA, EIA) ([2]; 21 Day, group GII (CS): Covishild + CBD 102.5 mg/kg/d gavage day -7 to 28): 7.8 IU/mL (2×) and 7.1 IU/mL and 7.5 IU/mL and 7.9 IU/mL and 8.1 IU/mL | IgG, serum (CLIA, EIA) ([2]; 21 Day, group GIII (CS): Covishild + CBD 102.5 mg/kg/d gavage day -7 to 0, then discontinued): 7.6 IU/mL (2×) and 8.1 IU/mL (3×) and 7.8 IU/mL | augmentation of overall IgG response to vaccine by CBD ([2]; FIG. 2C, average overall response over 28 days): 15% | augmentation of overall IgM response to vaccine by CBD ([2]; FIG. 2D, average overall response over 28 days): 25% | augmentation of overall IgG response to vaccine by CBD ([2]; FIG. 2I, AUC over 28 days, female mice): 13% | augmentation of overall IgM response to vaccine by CBD ([2]; FIG. 2J, AUC over 28 days, female mice): 21% | time after vaccine by which IgG and IgM responses were significantly elevated compared to mice not given CBD ([2]; FIGS. 2E and 2F): ≤ 7 days | IgG response at day 7 versus vehicle (no CBD) group ([2]; FIGS. 2K and 2L, female mice, CBD given throughout the trial): significantly better IgG response | time after vaccine by which IgG and IgM responses were significantly elevated compared to mice not given CBD ([2]; FIGS. 2K and 2L, female mice): ≤ 14 days | course of antibody titres in mice given vaccine plus CBD ([2]; compared with vaccine without CBD, whose titres did not rise, up to day 28): rose and remained elevated until day 28
